We go through 33 molecules from patent publication US10344017B2, “Pyrrolcarboxamide derivatives for the inhibition of ERK5” (CANCER RESEARCH TECHNOLOGY LIMITED, priority 2014, dated 2019).

The IC50 is the concentration needed to halve the response being measured.

The experiment deals with T1, ERK5 (Homo sapiens, UniProt Q13164).
T1 construct: made in house
The experiment can be described thus: ERK5 IMAP assay (fluorescence polarisation). The class given is biochemical. Conditions: average (e.g. geometric mean) where more than one data point; read-out: ERK5 IC50. As for the experimental part:
The assay buffer was prepared using 0.01% Tween®-20 5× stock, supplied as part of IMAP™ FP Progressive Binding System Kit (Molecular Devices R7436) and diluted to 1× using miliQ H2O. 1 μL of a 1M DTT stock was added for every 1 mL of 1× assay buffer to give a final concentration of 1 mM DTT.
ERK5 was expressed and purified at CRT-DL by Leon Pang and Sue Young. Aliquots were stored at −80° C. The ERK5 working solution was used at a […] final dilution in assay buffer. […] For 1 plate, […] of ERK5 stock was added to 2262 μL of 1× assay buffer.
To prepare the IMAP™ binding solution for one plate 20.5 μL of IMAP™ binding reagent stock, 1476 μL of 1× binding buffer A (60%), and 984 μL of binding buffer B (40%) (IMAP™ FP Progressive screening express kit (Molecular Devices R8127) was added to 9819.5 μL of milliQ H2O.
1 μL of inhibitor (in 60:40 H2O/DMSO) or 60:40 H2O/DMSO (for controls and blanks) were dry-spotted into the relevant wells of a 384-well assay plate using the MATRIX PlateMate® Plus. 5 μL of ERK5 working solution was added to test and control wells, and 5 μL of 1× assay buffer added to blanks; 4 μL of ATP/substrate working solution was added to all wells using a Matrix multichannel pipette. The plate was sealed using DMSO resistant clear seal and incubated for 2 h at 37° C. 1 μL of the kinase reaction mixture from the first plate was dry spotted into a second 384-well assay plate using the MATRIX PlateMate® Plus. 9 μL of assay buffer was added, followed by 30 μL of IMAP™ binding solution using a multichannel pipette. The plate was incubated at RT in darkness for 2 h. The assay plate was then read on an Analyst HT plate reader (Molecular Devices) using the settings described below: […]
Background: In fluorescence polarisation assays a small probe gives low polarisation when free and higher when bound to something large.

T1 sequence (Q13164 whole entry): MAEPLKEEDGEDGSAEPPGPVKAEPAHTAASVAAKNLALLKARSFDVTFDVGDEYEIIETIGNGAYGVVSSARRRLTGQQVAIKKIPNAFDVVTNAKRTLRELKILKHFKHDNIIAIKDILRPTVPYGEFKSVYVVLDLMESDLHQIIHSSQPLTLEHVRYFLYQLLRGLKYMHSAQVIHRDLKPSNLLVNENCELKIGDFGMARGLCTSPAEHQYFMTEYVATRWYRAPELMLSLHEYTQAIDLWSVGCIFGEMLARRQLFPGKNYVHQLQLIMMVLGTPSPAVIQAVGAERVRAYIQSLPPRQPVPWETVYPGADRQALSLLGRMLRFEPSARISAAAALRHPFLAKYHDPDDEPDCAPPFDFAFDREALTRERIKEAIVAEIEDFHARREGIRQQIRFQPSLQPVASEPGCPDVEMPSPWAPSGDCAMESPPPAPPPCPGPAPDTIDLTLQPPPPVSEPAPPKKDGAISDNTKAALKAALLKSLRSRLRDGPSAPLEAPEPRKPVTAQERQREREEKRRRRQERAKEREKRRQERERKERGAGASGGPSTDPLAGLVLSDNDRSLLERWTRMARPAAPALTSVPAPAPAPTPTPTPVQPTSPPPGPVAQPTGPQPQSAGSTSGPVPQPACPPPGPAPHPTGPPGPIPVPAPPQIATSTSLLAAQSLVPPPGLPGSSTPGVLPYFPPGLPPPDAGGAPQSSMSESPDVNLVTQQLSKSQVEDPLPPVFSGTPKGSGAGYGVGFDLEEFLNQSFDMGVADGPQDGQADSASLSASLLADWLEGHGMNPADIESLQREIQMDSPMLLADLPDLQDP

For `O=C(Nc1cnn(Cc2ccncc2)c1)c1cc(C(=O)c2c(Cl)ccc(Cl)c2F)c[nH]1` [Example 50, 4-(3,6-Dichloro-2-fluorobenzoyl)-N-(1-(pyridin-4-ylmethyl)-1H-pyrazol-4-yl)-1H-pyrrole-2-carboxamide], the IC50 was found to be 0.021 µM.

Consider `Cn1ccnc1Cn1cc(NC(=O)c2cc(C(=O)c3c(Cl)ccc(Cl)c3F)c[nH]2)cn1` [Example 51, 4-(3,6-Dichloro-2-fluorobenzoyl)-N-(1-((1-methyl-1H-imidazol-2-yl)methyl)-1H-pyrazol-4-yl)-1H-pyrrole-2-carboxamide], for which the IC50 was determined as 0.0176 µM.

Take `Cc1cc(NC(=O)c2cc(C(=O)c3c(Cl)ccc(Cl)c3F)c[nH]2)no1` [Example 58, 4-(3,6-Dichloro-2-fluorobenzoyl)-N-(5-methylisoxazol-3-yl)-1H-pyrrole-2-carboxamide]: the IC50 came out at 2.48 µM.

With `COc1ccc(Cl)c(C(=O)c2c[nH]c(C(=O)Nc3ccc(NC4CCN(C)CC4)nc3)c2)c1F` [Example 61, 4-(6-Chloro-2-fluoro-3-methoxybenzoyl)-N-(6-((1-methylpiperidin-4-yl)amino)pyridin-3-yl)-1H-pyrrole-2-carboxamide], the IC50 is 0.0269 µM.

In the case of `COc1ccc(Cl)c(C(=O)c2c[nH]c(C(=O)Nc3cnn(C)c3)c2)c1F` [Example 62, 4-(6-Chloro-2-fluoro-3-methoxybenzoyl)-N-(1-methyl-1H-pyrazol-4-yl)-1H-pyrrole-2-carboxamide], the concentration for half-maximal inhibition (IC50) is 0.0843 µM.

Turning to `COCCn1cc(NC(=O)c2cc(C(=O)c3c(Cl)ccc(OC)c3F)c[nH]2)cn1` [Example 63, 4-(6-Chloro-2-fluoro-3-methoxybenzoyl)-N-(1-(2-methoxyethyl)-1H-pyrazol-4-yl)-1H-pyrrole-2-carboxamide], the half-maximal inhibitory concentration (IC50) was 0.104 µM.

For `COc1ccc(Cl)c(C(=O)c2c[nH]c(C(=O)Nc3cnn(C4CCN(CC(F)(F)F)CC4)c3)c2)c1F` [Example 64, 4-(6-Chloro-2-fluoro-3-methoxybenzoyl)-N-(1-(1-(2,2,2-trifluoroethyl)piperidin-4-yl)-1H-pyrazol-4-yl)-1H-pyrrole-2-carboxamide], the IC50 came to 2.99 µM.

Regarding `COc1ccc(Cl)c(C(=O)c2c[nH]c(C(=O)Nc3cnn(Cc4ccccn4)c3)c2)c1F` [Example 65], the IC50 stood at 0.0538 µM.

As to `COc1ccc(Cl)c(C(=O)c2c[nH]c(C(=O)Nc3cnn(Cc4cccnc4)c3)c2)c1F` [Example 66, 4-(6-Chloro-2-fluoro-3-methoxybenzoyl)-N-(1-(pyridin-3-ylmethyl)-1H-pyrazol-4-yl)-1H-pyrrole-2-carboxamide], the half-maximal inhibitory concentration (IC50) is 0.0166 µM.

On to `COc1ccc(Cl)c(C(=O)c2c[nH]c(C(=O)Nc3cnn(Cc4ccncc4)c3)c2)c1F` [Example 67], for which the concentration for half-maximal inhibition (IC50) turned out to be 0.0163 µM.

With `COc1ccc(Cl)c(C(=O)c2c[nH]c(C(=O)Nc3cnn(CC4CCN(C)CC4)c3)c2)c1F` [Example 68, 4-(6-Chloro-2-fluoro-3-methoxybenzoyl)-N-(1-((1-methylpiperidin-4-yl)methyl)-1H-pyrazol-4-yl)-1H-pyrrole-2-carboxamide], the IC50 was 0.0199 µM.

`COc1ccc(F)c(C(=O)c2c[nH]c(C(=O)NC3CCN(C)CC3)c2)c1Cl` [Example 71, 4-(2-chloro-6-fluoro-3-methoxybenzoyl)-N-(1-methylpiperidin-4-yl)-1H-pyrrole-2-carboxamide]: the IC50 turned out to be 0.173 µM.

As for `COc1ccc(F)c(C(=O)c2c[nH]c(C(=O)Nc3cccnc3)c2)c1Cl` [Example 73, 4-(2-chloro-6-fluoro-3-methoxybenzoyl)-N-(pyridin-3-yl)-1H-pyrrole-2-carboxamide], the IC50 worked out at 0.255 µM.

Take `COc1ccc(Cl)c(C(=O)c2c[nH]c(C(=O)Nc3cncnc3)c2)c1F` [Example 74, 4-(6-chloro-2-fluoro-3-methoxybenzoyl)-N-(pyrimidin-5-yl)-1H-pyrrole-2-carboxamide]: the IC50 was found to be 0.202 µM.

`COc1ccc(F)c(C(=O)c2c[nH]c(C(=O)Nc3cncnc3)c2)c1Cl` [Example 75, 4-(2-chloro-6-fluoro-3-methoxybenzoyl)-N-(pyrimidin-5-yl)-1H-pyrrole-2-carboxamide]: the IC50 amounted to 0.437 µM.

With `CCc1ncccc1NC(=O)c1cc(C(=O)c2c(F)cccc2Cl)c[nH]1` [Example 76, 4-(2-Chloro-6-fluorobenzoyl)-N-(2-ethylpyridin-3-yl)-1H-pyrrole-2-carboxamide], the IC50 was 1.58 µM.

Regarding `O=C(Nc1cccnc1N1CCCC1)c1cc(C(=O)c2c(F)cccc2Cl)c[nH]1` [Example 80, 4-(2-Chloro-6-fluorobenzoyl)-N-(2-(pyrrolidin-1-yl)pyridin-3-yl)-1H-pyrrole-2-carboxamide], the IC50 stood at 7.98 µM.

Regarding `Cc1ncccc1NC(=O)c1cc(C(=O)c2c(Cl)ccc(Cl)c2F)c[nH]1` [Example 81, 4-(3,6-Dichloro-2-fluorobenzoyl)-N-(2-methylpyridin-3-yl)-1H-pyrrole-2-carboxamide], the IC50 turned out to be 0.394 µM.

In the case of `CCc1ncccc1NC(=O)c1cc(C(=O)c2c(Cl)ccc(Cl)c2F)c[nH]1` [Example 82, 4-(3,6-Dichloro-2-fluorobenzoyl)-N-(2-ethylpyridin-3-yl)-1H-pyrrole-2-carboxamide], the IC50 is 1.05 µM.

As to `CCCc1ncccc1NC(=O)c1cc(C(=O)c2c(Cl)ccc(Cl)c2F)c[nH]1` [Example 83, 4-(3,6-Dichloro-2-fluorobenzoyl)-N-(2-propylpyridin-3-yl)-1H-pyrrole-2-carboxamide], the IC50 was determined as 3.54 µM.

Consider `COc1ncccc1NC(=O)c1cc(C(=O)c2c(Cl)ccc(Cl)c2F)c[nH]1` [Example 84, 4-(3,6-Dichloro-2-fluorobenzoyl)-N-(2-methoxypyridin-3-yl)-1H-pyrrole-2-carboxamide], for which the IC50 turned out to be 1.18 µM.

As to `CCOc1ncccc1NC(=O)c1cc(C(=O)c2c(Cl)ccc(Cl)c2F)c[nH]1` [Example 85, 4-(3,6-Dichloro-2-fluorobenzoyl)-N-(2-ethoxypyridin-3-yl)-1H-pyrrole-2-carboxamide], the IC50 is 6.05 µM.

As for `O=C(Nc1cccnc1N1CCCC1)c1cc(C(=O)c2c(Cl)ccc(Cl)c2F)c[nH]1` [Example 86, 4-(3,6-Dichloro-2-fluorobenzoyl)-N-(2-(pyrrolidin-1-yl)pyridin-3-yl)-1H-pyrrole-2-carboxamide], the IC50 worked out at 12.2 µM.

Consider `Cc1ccncc1NC(=O)c1cc(C(=O)c2c(F)cccc2Cl)c[nH]1` [Example 87, 4-(2-Chloro-6-fluorobenzoyl)-N-(4-methylpyridin-3-yl)-1H-pyrrole-2-carboxamide], for which the IC50 was 1.26 µM.

As for `CCc1ccncc1NC(=O)c1cc(C(=O)c2c(F)cccc2Cl)c[nH]1` [Example 88, 4-(2-Chloro-6-fluorobenzoyl)-N-(4-ethylpyridin-3-yl)-1H-pyrrole-2-carboxamide], the IC50 worked out at 2.14 µM.

As for `CCCc1ccncc1NC(=O)c1cc(C(=O)c2c(F)cccc2Cl)c[nH]1` [Example 89, 4-(2-Chloro-6-fluorobenzoyl)-N-(4-propylpyridin-3-yl)-1H-pyrrole-2-carboxamide], the IC50 came to 3.34 µM.

Turning to `COc1ccncc1NC(=O)c1cc(C(=O)c2c(F)cccc2Cl)c[nH]1` [Example 90, 4-(2-Chloro-6-fluorobenzoyl)-N-(4-methoxypyridin-3-yl)-1H-pyrrole-2-carboxamide], the IC50 came out at 2.19 µM.

Take `CCOc1ccncc1NC(=O)c1cc(C(=O)c2c(F)cccc2Cl)c[nH]1` [Example 91, 4-(2-Chloro-6-fluorobenzoyl)-N-(4-ethoxypyridin-3-yl)-1H-pyrrole-2-carboxamide]: the IC50 turned out to be 2.31 µM.

Turning to `O=C(Nc1cnccc1N1CCCC1)c1cc(C(=O)c2c(F)cccc2Cl)c[nH]1` [Example 92, 4-(2-Chloro-6-fluorobenzoyl)-N-(4-(pyrrolidin-1-yl)pyridin-3-yl)-1H-pyrrole-2-carboxamide], the IC50 was 16.5 µM.

For `Cc1ccncc1NC(=O)c1cc(C(=O)c2c(Cl)ccc(Cl)c2F)c[nH]1` [Example 93, 4-(3,6-Dichloro-2-fluorobenzoyl)-N-(4-methylpyridin-3-yl)-1H-pyrrole-2-carboxamide], the IC50 came to 0.483 µM.

`CCc1ccncc1NC(=O)c1cc(C(=O)c2c(Cl)ccc(Cl)c2F)c[nH]1` [Example 94, 4-(3,6-Dichloro-2-fluorobenzoyl)-N-(4-ethylpyridin-3-yl)-1H-pyrrole-2-carboxamide]: the IC50 turned out to be 1.67 µM.

Take `CCCc1ccncc1NC(=O)c1cc(C(=O)c2c(Cl)ccc(Cl)c2F)c[nH]1` [Example 95, 4-(3,6-Dichloro-2-fluorobenzoyl)-N-(4-propylpyridin-3-yl)-1H-pyrrole-2-carboxamide]: the IC50 was determined as 2.82 µM.

Turning to `COc1ccncc1NC(=O)c1cc(C(=O)c2c(Cl)ccc(Cl)c2F)c[nH]1` [Example 96, 4-(3,6-Dichloro-2-fluorobenzoyl)-N-(4-methoxypyridin-3-yl)-1H-pyrrole-2-carboxamide], the IC50 came out at 1 µM.
